Patent US20200340984A1, “METHODS OF QUANTIFYING CFTR PROTEIN EXPRESSION” (Proteostasis Therapeutics, Inc., priority 2017, published 2020)

Assays:
Type in all cases: cell-based
[1] = test system: CFTR; assay: CFTR AlphaLISA, HT-29 cells; details: CFTR protein, HT-29 intestinal carcinoma cell line
[2] = test system: F508del CFTR; assay: CFTR AlphaLISA, F508del-CFBE cells; details: CFTR protein
Excerpt: A cystic fibrosis bronchial epithelial cell line (CFBE410-) stably expressing either F508del-CFTR (CFBE F508del) or wild type CFTR (CFBE WT) under the control of a human cytomegalovirus (CMV) promoter was used. A CFBE410-cell line that lacks detectable CFTR endogenously was used as a control (CFBE parental).
In this assay, streptavidin-coated donor beads are coated with a biotinylated antibody that recognizes the CFTR protein and acceptor beads are coated with a second antibody that recognizes the CFTR protein. The AlphaLISA® assay uses luminescent oxygen-channeling chemistry in which laser irradiation of donor beads at 680 nm causes chemiluminescent emission from the acceptor bead at 615 nm. Thus, when CFTR protein is present, both donor and acceptor beads bind the analyte. Their close proximity triggers a reaction that results in chemiluminescent emission at 615 nm from the acceptor bead. […]
The plate was read on a Perkin Elmer EnVision (or a similar instrument can be used) at 615 nm (AlphaLISA® Opti-384 program). […]

[3] = test system: CFTR; assay: CFTR AlphaLISA, H508 cells; details: CFTR protein, H508 intestinal carcinoma cell line
[4] = test system: CFTR; assay: Western blot analysis of CFTR expression, HT-29 cells
Protocol: Cells were washed with ice-cold phosphate-buffered saline (PBS) and lysed in Pierce™ immunoprecipitation (IP)-Lysis Buffer (Thermo Fisher Scientific Inc., Grand Island, N.Y.) containing protease inhibitor cocktail (cOmplete™ Mini Protease Inhibitor Cocktail tablets, Roche Diagnostics GmBH, Mannheim, Germany). The cells were incubated with lysis buffer for 30 minutes on ice and centrifuged for 30 minutes at 13,000 rpm. Supernatant was collected and protein concentration was assayed by Pierce™ BCA Protein Assay Kit (Thermo Fisher Scientific). The cell lysates were loaded on a NuPAGE 3%-8% Tris-Acetate Gel (Thermo Fisher Scientific), and transferred onto a nitrocellulose membrane (Trans-Blot® Turbo™ Mini Nitrocellulose Transfer Packs, Bio-Rad, Hercules, Calif.). The membrane was blocked in tris-buffered saline with Tween-20 (TBST) and 5% milk and probed with mouse CFTR antibody (UNC596, 1:500 dilution) at 4° C. with gentle shaking overnight. Next day, membrane was washed three times with (TBST). Then, the membrane was incubated for 2 hours with anti-mouse IgG, horseradish peroxidase (HRP)-linked antibody (Cell Signaling Technology, Beverly, Mass.) at 1:2000 dilution. […]

O=C(NCCCn1nncc1CO)c1cc(-c2ccccc2)on1 [PTI-CH]
Fold change (PTI-CH/DMSO) [1]: 1.7 ± 0.05
Fold change (PTI-CH/DMSO) [2]: 4.9 ± 0.53
Fold change (PTI-CH/DMSO) [3]: 1.3 ± 0.08
fold changes in CFTR expression [4]: 1.4 ×
